Assay results: patent publication US12214076B2, “Drug delivery vehicles for atherosclerosis nanomedicine” (Northwestern University, priority 2019, dated 2025)
Peptide text beside a SMILES is read from it. * marks the point of attachment. Palmitoyl = CCCCCCCCCCCCCCCC(=O)*

Columns and labels:
[1] = tested on: J774.2 murine macrophages; assay: Nitric oxide production of stimulated macrophages; assay type: cell-based, mouse; conditions: 24 hours, LPS and stimulated, 32 μM Ac2-26 or epitope equivalent
Protocol: Macrophage culture and characterization: J774.2 murine macrophages (Sigma-Aldrich) were expanded at 4-9×10^5 cells/mL in growth media consisting of Dulbecco's Modified Eagle's Medium (Sigma-Aldrich) containing 4.5 g/L glucose, 2 mM L-glutamine, 10% v/v FBS, 100 U/m penicillin, and 100 μg/mL streptomycin. Cells were passaged using Accutase™ (StemCell Technologies) and used at passage 6-9 for all experiments. The cells were detached with Accutase™ and gentle scraping, counted, and re-suspended in flow cytometry buffer containing 2% w/v bovine serum albumin (BSA, heat shock fraction free of proteases, globulin, and fatty acids, Sigma-Aldrich) and 0.1% w/v sodium azide (Sigma-Aldrich). To minimize non-specific binding of immunoglobin to Fc receptors, macrophages were incubated with anti-mouse CD16/32 antibody (TrueStain FcX™, Biolegend) at 1 μg/1×10^5 cells for 10 minutes at 4° C. APC anti-mouse CD11b antibody or APC Armenian hamster IgG isotype control antibody (Biolegend) were added at 0.4 μg/1×10^5 cells, FPR2 antibody (Novus Biologics) was added at […], and all samples were incubated for 30 minutes at 4° C. The cells were washed once with flow cytometry buffer by centrifugation at 300×g. FPR2 samples were further treated with goat anti-rabbit Alexa Fluor 488 secondary antibody (Invitrogen) at 2 μg/1×10^5 cells for 20 minutes at 4° C., followed by a wash step. Unstained macrophages served as controls and contained 7AAD viability staining solution (Biolegend) at 0.1 μg/1×10^5. All samples were suspended in 4% paraformaldehyde (Electron Microscopy Sciences) in PBS until analysis. […] All samples were analyzed using Attune NxT Acoustic Focusing Cytometer (Thermo Fisher) with at least 2000 events counted per condition.
Therapeutic effects of ApoA1-Ac2-26 PAs: 10% ROS- and MMP-Ac2-26 PAs, as well as Ac2-26 peptide were added together with 10 μg/mL LPS at 32 μM Ac2-26 to macrophages. […] Concerning the quantification of NO, the reducing solution made of KI in acetic acid and water provides an excess of I− that reacts with nitrite yielding ·NO. […]

[2] = Nile Red assay, critical aggregation concentration; assay type: physicochemical; conditions: PBS, aged 24 hours at 4° C.
Protocol: Nile Red assay: The critical aggregation concentration (CAC) for PA nanofibers was determined by diluting the PAs in Nile Red solution. Nile Red undergoes a blue shift in fluorescence as the hydrophobic character of PAs in the solvent increases, with a corresponding increase in fluorescence intensity due to reduced twisted intramolecular charge transfer. 10% MMP- and ROS-Ac2-26 PAs were diluted from 1 mM to 100 nM in PBS containing of 2.5 μM Nile Red and aged for 24 hours at 4° C. The PAs were aliquoted in triplicate onto a 96-well plate, excited at 550 nm, and the fluorescence read from […]. The CAC was determined by plotting the log of the concentration with the corresponding maximum fluorescence intensity, and calculating the concentration at the intersection of the baseline and tangent line to the rising curve.

Compound | macrophage activation, nitric oxide production relative to the stimulated control [1] | critical aggregation concentration (CAC) [2] [µM]
10% MMP-Ac2-26 PA: co-assembly of 10 mol % MMP-Ac2-26 PA, 50 mol % E2 filler PA, and 40% ApoA1 PA (VVAAEEGGGPQGIWGQGKAMVSEFLKQAWFIENEEQEYVQTVK) | significantly reduced | ~32
CCCCCCCCCCCCCCCC(=O)N[C@H](C(=O)N[C@H](C(=O)N[C@@H](C)C(=O)N[C@@H](C)C(=O)N[C@@H](CCC(=O)O)C(=O)N[C@@H](CCC(=O)O)C(=O)NCC(=O)N[C@@H](CC(=O)O)C(=O)N[C@@H](Cc1c[nH]c2ccccc12)C(=O)N[C@@H](Cc1ccccc1)C(=O)N[C@@H](CCCCN)C(=O)N[C@@H](C)C(=O)N[C@@H](Cc1ccccc1)C(=O)N[C@@H](Cc1ccc(O)cc1)C(=O)N[C@@H](CC(=O)O)C(=O)N[C@@H](CCCCN)C(=O)N[C@H](C(=O)N[C@@H](C)C(=O)N[C@@H](CCC(=O)O)C(=O)N[C@@H](CCCCN)C(=O)N[C@@H](Cc1ccccc1)C(=O)N[C@@H](CCCCN)C(=O)N[C@@H](CCC(=O)O)C(=O)N[C@@H](C)C(=O)N[C@@H](Cc1ccccc1)C(N)=O)C(C)C)C(C)C)C(C)C [ApoA1 PA] (Palmitoyl-VVAAEEGDWFKAFYDKVAEKFKEAF-NH2) | did not cause significant decreases in nitric oxide production | –
